Results taken from patent US10138490B2, “Transformed plants tolerant to herbicides due to overexpression of prephenate dehydrogenase and p-hydroxyphenylpyruvate dioxygenase” (priority 2002, dated 2018).

Tests used:
Type in all cases: in vivo
[1] = test system: PBD6-ARA9 tobacco line (overexpressing A. thaliana HPPD); assay: Tolerance to HPPD inhibitors: sowing on increasing concentrations of DKN, parental line
Excerpt: (§1) The tolerance of the transformed plants is studied by sowing on a soil treated with diketonitrile (DKN).
(§2) 13 ARA9-PDH lines and the PBD6-ARA9 line that was used as starting material for the transformation were sown on increasing concentrations of DKN:5, 10 and 32 ppm.

[2] = test system: ARA9-PDH tobacco lines (overexpressing PDH and HPPD); assay: Tolerance to HPPD inhibitors: sowing on increasing concentrations of DKN, doubly transformed lines
Excerpt: as §1, §2

ARA9-PDH18 tobacco line = assay: Tolerance to sulcotrione and to mesotrione, ARA9-PDH18 line
Experimental: as §2
The same experiment was carried out with the HPPD inhibitors sulcotrione and mesotrione.

[3] = test system: wild-type tobacco line of the Petit Havana type; assay: Tolerance to sulcotrione and to mesotrione, wild-type line

SMILES: CS(=O)(=O)c1cc(C(F)(F)F)ccc1C(=O)C(C#N)C(=O)C1CC1 (centres unmarked) [DKN]
- response of line sown on DKN ([1]; 5 ppm DKN): resistant
- response of line sown on DKN ([1]; 10 ppm DKN): completely inhibited
- response of line sown on DKN ([1]; 32 ppm DKN): completely inhibited
- response of lines sown on DKN ([2]; 5 ppm DKN, all 13 ARA9-PDH lines): resistant
- response of line sown on DKN ([2]; 10 ppm DKN, ARA9-PDH4 line): inhibited
- response of lines sown on DKN ([2]; 10 ppm DKN, all ARA9-PDH lines except ARA9-PDH4): resist well
- response of lines sown on DKN ([2]; 32 ppm DKN, ARA9-PDH lines that were resistant to 10 ppm): resistant and grow normally

SMILES: CS(=O)(=O)c1ccc(C(=O)C2C(=O)CCCC2=O)c([N+](=O)[O-])c1 [mesotrione]
- concentration of HPPD inhibitor the line is tolerant to (ARA9-PDH18 tobacco line): 3 µM
- concentration of HPPD inhibitor the line is sensitive to [3]: 0.375 µM

SMILES: CS(=O)(=O)c1ccc(C(=O)C2C(=O)CCCC2=O)c(Cl)c1 [sulcotrione]
- concentration of HPPD inhibitor the line is tolerant to (ARA9-PDH18 tobacco line): 6 µM
- concentration of HPPD inhibitor the line is sensitive to [3]: 0.375 µM
